Laboratory results published in the RepoRT retention time repository (doi:10.1016/j.jchromb.2020.122105).

Tests used:
Conditions in all cases: stereoisomer not certain
[1] = RP, Waters ACQUITY UPLC BEH C18, 100 × 2.1 mm, 1.7 µm, 0.1 mL/min, estimated dead time 2.2 min; A: water + 0.045% formic acid + 0.11% ammonium hydroxide, pH 7; B: methanol; gradient (min/%B) 0/5 5/5 25/95 25.1/100 35/100 35.1/5 45/5
[2] = HILIC, Merck SeQuant ZIC-HILIC, 150 × 2.1 mm, 5 µm, 0.75 mL/min, estimated dead time 0.44 min; A: water + 10 mM ammonium formate, pH 6; B: 5% water + 95% acetonitrile + 10 mM ammonium formate, pH 6; gradient (min/%B) 0/95 5/95 20/57 25/57 30/95 40/95
[3] = HILIC, Waters XBridge BEH Amide, 100 × 2.1 mm, 2.5 µm, 0.5 mL/min, estimated dead time 0.44 min; A: water + 0.1% acetic acid + 10 mM ammonium acetate, pH 4; B: 5% water + 95% acetonitrile + 0.1% acetic acid + 10 mM ammonium acetate, pH 4; gradient (min/%B) 0/95 5/95 20/57 25/57 30/95 40/95
[4] = RP, Waters CORTECS T3, 100 × 2.1 mm, 2.7 µm, 0.2 mL/min, estimated dead time 1.1 min; A: water + 0.045% formic acid + 0.11% ammonium hydroxide, pH 7; B: methanol; gradient (min/%B) 0/5 5/5 25/95 25.1/100 35/100 35.1/5 45/5
[5] = HILIC, Merck SeQuant ZIC-HILIC, 150 × 2.1 mm, 5 µm, 0.75 mL/min, estimated dead time 0.44 min; A: water + 0.1% acetic acid + 10 mM ammonium acetate, pH 4; B: 5% water + 95% acetonitrile + 0.1% acetic acid + 10 mM ammonium acetate, pH 4; gradient (min/%B) 0/95 5/95 20/57 25/57 30/95 40/95
[6] = RP, Waters ACQUITY UPLC BEH C18, 100 × 2.1 mm, 1.7 µm, 0.1 mL/min, estimated dead time 2.2 min; A: water + 0.1% formic acid, pH 3; B: methanol + 0.1% formic acid, pH 3; gradient (min/%B) 0/5 5/5 25/95 25.1/100 35/100 35.1/5 45/5
[7] = RP, Waters CORTECS T3, 100 × 2.1 mm, 2.7 µm, 0.2 mL/min, estimated dead time 1.1 min; A: water + 0.1% formic acid, pH 3; B: methanol + 0.1% formic acid, pH 3; gradient (min/%B) 0/5 5/5 25/95 25.1/100 35/100 35.1/5 45/5
[8] = RP, Thermo Scientific Hypercarb, 150 × 2.1 mm, 5 µm, 0.1 mL/min, estimated dead time 3.3 min; A: water + 0.1% formic acid, pH 3; B: methanol + 0.1% formic acid, pH 3; gradient (min/%B) 0/5 5/5 20/100 35/100 35.1/5 45/5
[9] = RP, Waters CORTECS T3, 100 × 2.1 mm, 2.7 µm, 0.3 mL/min, estimated dead time 0.73 min; A: water + 0.1% formic acid, pH 3; B: methanol + 0.1% formic acid, pH 3; gradient (min/%B) 0/5 5/5 25/100 30/100 30.1/5 35/5
[10] = RP, Waters CORTECS T3, 100 × 2.1 mm, 2.7 µm, 0.1 mL/min, estimated dead time 2.2 min; A: water + 0.1% formic acid, pH 3; B: methanol + 0.1% formic acid, pH 3; gradient (min/%B) 0/5 5/5 25/95 25.1/100 35/100 35.1/5 45/5
[11] = RP, Waters ACQUITY UPLC BEH C18, 100 × 2.1 mm, 1.7 µm, 0.1 mL/min, estimated dead time 2.2 min; A: water + 0.1% formic acid, pH 3; B: methanol + 0.1% formic acid, pH 3; gradient (min/%B) 0/5 5/5 25/100 30/100 30.1/5 35/5
[12] = RP, Waters ACQUITY UPLC BEH C18, 100 × 2.1 mm, 1.7 µm, 0.2 mL/min, estimated dead time 1.1 min; A: water + 0.025% formic acid + 20 mM ammonium acetate + 0.055% ammonium hydroxide, pH 7; B: methanol; gradient (min/%B) 0/5 5/5 25/100 30/100 30.1/5 35/5
[13] = RP, Waters CORTECS T3, 100 × 2.1 mm, 2.7 µm, 0.2 mL/min, estimated dead time 1.1 min; A: water + 0.1% formic acid, pH 3; B: methanol + 0.1% formic acid, pH 3; gradient (min/%B) 0/0 1/0 6/5 30/100 35/100 35.1/0 40/0
[14] = RP, Waters CORTECS T3, 100 × 2.1 mm, 2.7 µm, 0.1 mL/min, estimated dead time 2.2 min; A: water + 0.1% formic acid, pH 3; B: methanol + 0.1% formic acid, pH 3; gradient (min/%B) 0/0 1/0 6/5 30/100 35/100 35.1/0 40/0
[15] = RP, Waters CORTECS T3, 100 × 2.1 mm, 2.7 µm, 0.25 mL/min, estimated dead time 0.88 min; A: water + 0.1% formic acid, pH 3; B: methanol + 0.1% formic acid, pH 3; gradient (min/%B) 0/0 1/0 6/5 30/100 35/100 35.1/0 40/0
[16] = RP, Waters CORTECS T3, 100 × 2.1 mm, 2.7 µm, 0.3 mL/min, estimated dead time 0.73 min; A: water + 0.1% formic acid, pH 3; B: methanol + 0.1% formic acid, pH 3; gradient (min/%B) 0/0 5/0 25/100 30/100 30.1/0 35/0
[17] = RP, Waters CORTECS T3, 100 × 2.1 mm, 2.7 µm, 0.15 mL/min, estimated dead time 1.5 min; A: water + 0.1% formic acid, pH 3; B: methanol + 0.1% formic acid, pH 3; gradient (min/%B) 0/0 1/0 6/5 30/100 35/100 35.1/0 40/0
[18] = RP, Waters ACQUITY UPLC BEH C18, 100 × 2.1 mm, 1.7 µm, 0.2 mL/min, estimated dead time 1.1 min; A: water + 0.025% formic acid + 20 mM ammonium acetate + 0.055% ammonium hydroxide, pH 7; B: methanol; gradient (min/%B) 0/5 5/5 25/100 30/100 30.1/5 35/5; remark: listed apart in the source
[19] = RP, Waters CORTECS T3, 100 × 2.1 mm, 2.7 µm, 0.3 mL/min, estimated dead time 0.73 min; A: water + 0.1% formic acid, pH 3; B: methanol + 0.1% formic acid, pH 3; gradient (min/%B) 0/5 5/5 25/95 25.1/100 35/100 35.1/5 45/5
[20] = RP, Waters CORTECS T3, 100 × 2.1 mm, 2.7 µm, 0.3 mL/min, estimated dead time 0.73 min; A: water + 0.1% formic acid, pH 3; B: methanol + 0.1% formic acid, pH 3; gradient (min/%B) 0/0 1/0 6/5 30/100 35/100 35.1/0 40/0
[21] = RP, Waters CORTECS T3, 100 × 2.1 mm, 2.7 µm, 0.25 mL/min, estimated dead time 0.88 min; A: water + 0.1% formic acid, pH 3; B: methanol + 0.1% formic acid, pH 3; gradient (min/%B) 0/5 5/5 25/95 25.1/100 35/100 35.1/5 45/5
[22] = RP, Waters CORTECS T3, 100 × 2.1 mm, 2.7 µm, 0.3 mL/min, estimated dead time 0.73 min; A: water + 0.1% formic acid, pH 3; B: methanol + 0.1% formic acid, pH 3; gradient (min/%B) 0/0 5/0 25/100 30/100 30.1/0 35/0; remark: listed apart in the source
[23] = RP, Waters CORTECS T3, 100 × 2.1 mm, 2.7 µm, 0.2 mL/min, estimated dead time 1.1 min; A: water + 0.1% formic acid, pH 3; B: methanol + 0.1% formic acid, pH 3; gradient (min/%B) 0/0 1/0 6/5 30/100 35/100 35.1/0 40/0; remark: listed apart in the source
[24] = RP, Waters ACQUITY UPLC BEH C18, 100 × 2.1 mm, 1.7 µm, 0.2 mL/min, estimated dead time 1.1 min; A: water + 0.1% formic acid, pH 3; B: methanol + 0.1% formic acid, pH 3; gradient (min/%B) 0/5 5/5 25/100 30/100 30.1/5 35/5
[25] = RP, Waters CORTECS T3, 100 × 2.1 mm, 2.7 µm, 0.3 mL/min, estimated dead time 0.73 min; A: water + 0.1% formic acid, pH 3; B: methanol + 0.1% formic acid, pH 3; gradient (min/%B) 0/0 1/0 6/5 30/100 35/100 35.1/0 40/0; remark: listed apart in the source

Row | LC retention time [2] | LC retention time [3] | LC retention time [5] | LC retention time [6] | LC retention time [7] | Structure (SMILES) | also measured
1 | 7.77 min | 6.05 min | – | – | – | CCCCCCCCCCCCCCCC(=O)OCC(COP(=O)(O)OCCN)OC(=O)CCCCCCCCCCCCCCC (racemic) [1,2-DIPALMITOYL-RAC-GLYCERO-3-PHOSPHOETHANOLAMINE] | LC retention time [1]: 36.9 min; LC retention time [4]: 28.7 min
2 | 1.06 min | – | 1.32 min | – | – | C=CC1=C(C)C(=Cc2[nH]c(Cc3[nH]c(C=C4NC(=O)C(C)=C4C=C)c(C)c3CCC(=O)O)c(CCC(=O)O)c2C)NC1=O [BILIRUBIN] | LC retention time [1]: 26.9 min; LC retention time [4]: 24.4 min
3 | – | – | – | 2.67 min | 2.67 min | OCC1OC(OCC2OC(OC3(CO)OC(CO)C(O)C3O)C(O)C(O)C2O)C(O)C(O)C1O [D-(+)-RAFFINOSE] | –
4 | 13 min | 17 min | 12.9 min | – | 2.58 min | O=C([O-])[C@H](O)[C@@H](O)[C@H](O)[C@H](O)CO [D-GLUCONATE] | –
5 | 14.3 min | 14.7 min | 14.2 min | – | 2.45 min | NC(C(=O)O)C(O)C(O)C(O)CO (stereo not given) [GLUCOSAMINATE] | LC retention time [8]: 4.77 min
6 | 3.94 min | 3.97 min | – | – | – | O=c1[nH]cnc2nc[nH]c12 [HYPOXANTHINE] | LC retention time [9]: 1.33 min; LC retention time [10]: 2.72 min; LC retention time [11]: 2.8 min; LC retention time [12]: 1.38 min
7 | 13.4 min | 13.4 min | 13.4 min | – | 2.49 min | N[C@@H](CS(=O)(=O)O)C(=O)O [L-CYSTEIC ACID] | LC retention time [8]: 19.4 min
8 | – | 0.63 min | – | – | – | COc1ccc2[nH]cc(CCNC(C)=O)c2c1 [MELATONIN] | LC retention time [13]: 16.2 min; LC retention time [1]: 17.8 min; LC retention time [14]: 14.4 min; LC retention time [9]: 12.8 min; LC retention time [15]: 15.4 min; LC retention time [16]: 13.6 min; LC retention time [17]: 17.5 min; LC retention time [18]: 14.4 min; LC retention time [19]: 13.1 min; LC retention time [10]: 17.7 min; LC retention time [11]: 17.6 min; LC retention time [12]: 14.4 min; LC retention time [20]: 14.8 min; LC retention time [4]: 14.5 min
9 | – | 12.1 min | 11.8 min | 2.7 min | 2.67 min | CC(=O)NC(CC(N)=O)C(=O)O [N-ALPHA-ACETYL-L-ASPARAGINE] | LC retention time [21]: 1.08 min; LC retention time [22]: 0.89 min; LC retention time [23]: 1.35 min; LC retention time [24]: 1.38 min
10 | 12.3 min | – | 12.2 min | 2.67 min | 2.64 min | O=C(O)C1(O)CC(O)C(O)C(O)C1 (stereo not given) [QUINATE] | LC retention time [22]: 0.89 min; LC retention time [23]: 1.35 min; LC retention time [24]: 1.38 min
11 | – | – | 12.3 min | 2.67 min | 2.67 min | Nc1ncnc2c1ncn2[C@@H]1O[C@H](CSCC[C@H]([NH3+])C(=O)[O-])[C@@H](O)[C@H]1O [S-(5'-ADENOSYL)-L-HOMOCYSTEINE] | LC retention time [13]: 1.34 min; LC retention time [15]: 1.09 min; LC retention time [19]: 0.9 min; LC retention time [11]: 2.74 min; LC retention time [24]: 1.38 min
12 | 12.3 min | 11.4 min | 12 min | – | 2.48 min | NCCS(=O)(=O)O [TAURINE] | –
13 | – | 14 min | 13.6 min | 2.7 min | 2.67 min | O=c1ccn(C2OC(COP(=O)(O)O)C(O)C2O)c(=O)[nH]1 (stereo not given) [URIDINE-5-MONOPHOSPHATE] | LC retention time [25]: 0.92 min; LC retention time [21]: 1.08 min; LC retention time [22]: 0.89 min; LC retention time [23]: 1.35 min
